2 compounds from patent US11325892B2, “Compounds and methods for treating cancer” (Mayo Foundation for Medical Education and Research, priority 2014, dated 2022) can be followed below.

For data set [1], the system named is FTC cells. In words: Proliferative dose response of thyroid cells. Particulars: 72H treatment. The data set is classed as cell-based. How it is done: (§1) Cells were seeded at 5,000 cells/well in clear-bottom 96-well plates in triplicate in Maintenance Media. Drug treatment was applied at a concentration of 1:1000 in reduced serum (3%) Maintenance Media. After 72 hours, cells were washed with PBS, and stored at −80° C. prior to analysis using CyQuant® Proliferation Analysis Kit (Invitrogen) as per manufacturers' protocol for relative fluorescence units. Alternatively, cells were plated 2×10^5/well in 12-well plates (Midwest Scientific) in triplicate prior to drug treatment. After 120 hour treatment, cell number was established using a Coulter Particle Counter (Beckman). Or, cells were plated (0.5 or 1×10^5/well) in 24-well plates (Midwest Scientific), 3×. After 72 hour treatment, cell number established using Coulter Particle Counter (Beckman). Oleic acid-albumin (Sigma Aldrich) was added to media at 5 μM, and was applied adjuvant to drug treatment. Drug stocks were prepared in DMSO (Sigma) at 1000×. EC50 dosing per cell line was calculated using CalcuSyn® analytical software.
(§2) The efficacy of pharmacologic inhibition of this enzyme on tumor cell proliferation after a 72H treatment was determined, using A939572-a commercially available small molecule SCD1 inhibitor (Xin Z, Zhao H, Serby M D, Liu B, Liu M, Szczepankiewicz B G, Nelson L T, Smith H T, Suhar T S, Janis R S, Cao N, Camp H S, Collins C A, Sham H L, Surowy T K, Liu G. Discovery of piperidine-aryl urea-based stearoyl-CoA desaturase 1 inhibitors. Bioorg Med Chem Lett. 2008; 18(15):4298-302). […] Despite conspicuous SCD1 expression in 4 of the 5 FTC cells tested, no response to A939572 was observed (FIG. 10D).

Data set [2] has as its system NT or FA cells. In words: Proliferative dose response of thyroid cells. Particulars: 72H treatment. Format: cell-based. As to the method:
as §1, §2

Data set [3] relates to PTC cells. The data set can be described thus: Proliferative dose response of thyroid cells. The data set is classed as cell-based. Conditions: 72H treatment; 2/5 PTC cells at high doses. How it is done:
as §1, §2

Data set [4] deals with PARP cleavage, CHOP, s-XBP1, HERPUD1 in ATC cells. In words: PARP cleavage and UPR protein expression in ATC cells. The data set is classed as cell-based. Conditions: EC50 dose for 72H; all three ATC cells; abrogated with OA. How it is done: Protein extraction and western blot analysis was performed as previously described (Copland J A, Marlow L A, Kurakata S, et al. Novel high-affinity PPARgamma agonist alone and in combination with paclitaxel inhibits human anaplastic thyroid carcinoma tumor growth via p21WAF1/CIP1. Oncogene. Apr 13 2006; 25(16):2304-2317). Primary antibodies included SCD1 (Sigma-Aldrich, #HPA012107), BiP (Cell Signaling, #3183), CHOP (Cell Signaling, #2895), sXBP1(Santa Cruz Biotechnology, #sc-7160), PARP(Cell Signaling, #9542), and β-actin (Sigma-Aldrich, #A5441).
Cells were plated in 4-chamber slides (Thermo Scientific) prior to drug treatment. […]
Exogenous application of MUFAs, such as oleic or palmitoleic acid, can rescue the proliferative defects generated by SCD1 inhibition as these are the primary products of SCD1 enzymatic activity (Roongta U V, Pabalan J G, Wang X, Ryseck R P, Fargnoli J, Henley B J, Yang W P, Zhu J, Madireddi M T, Lawrence R M, Wong T W, Rupnow B A. Cancer cell dependence on unsaturated fatty acids implicates stearoyl-CoA desaturase as a target for cancer therapy. Mol Cancer Res. 2011; 9(11):1551-61). […] Transcriptional upregulation of UPR markers including GADD45a (Growth arrest and DNA damage inducible transcript 1, DDIT1), DDIT3 (DNA damage inducible transcript 3, CHOP), and HERPUD1 homocysteine-inducible, ER stress inducible, ubiquitin-like-1) were evaluated by QPCR.

Data set [5] relates to THJ16T ATC cell xenograft. The data set can be described thus: THJ16T xenograft model. The data set is classed as in vivo, female athymic nu/nu mice. As to the method:
Formalin-fixed, paraffin-embedded subject tissues were mounted on slides, blocked with Diluent (DakoCytomation) for 30 min, and then probed for SCD (Sigma-Aldrich, #HPA012107). IHC scoring was performed as previously described (von Roemeling C A, Marlow L A, Wei J J, et al. Stearoyl-CoA desaturase 1 is a novel molecular therapeutic target for clear cell renal cell carcinoma. Clin Cancer Res. May 1 2013; 19(9):2368-2380). Cases where insufficient tumor tissue presented were excluded. 20× images were obtained using Scanscope XT and Imagescope software.
1×10^6 THJ16T ATC cells were subcutaneously injected in female athymic nu/nu mice (Harlan Laboratories). Treatment was initiated once tumor volumes reached 50-100 mm^3. MF-438 was suspended in 0.5% carboxymethyl-cellulose containing strawberry drink flavoring(0.1 g/mL) in sterilized H2O at 25 mg/kg in a 100 μl dose, and administered via oral gavage once daily. Carfilzomib was solubilized in DMSO (4% of FC), suspended in 100% corn oil at 4 mg/kg per 50 uL dose and administered via intraperitoneal injection twice weekly on consecutive days. Tumor volume(0.5236[L*W*H]) and body weight were measured 2×/week. N=10 mice/group.
MF-438 was tested in combination with carfilzomib in vivo in a THJ16T xenograft model. […] J Clin Endocrinol Metab. 2010; 95(12):5338-47). […] Saline was administered as necessary. These adverse events resolved 24-48 hours after the second administration of carfilzomib. […] However, no other significant adverse events were observed. […] IHC analysis of tumors resected from each treatment group was performed.

Turning to `CNC(=O)c1cccc(NC(=O)N2CCC(Oc3ccccc3Cl)CC2)c1` [A939572], the proliferative response entry in data set [1] is recorded as “no response”; in data set [2], “No response”; in data set [3], “minimal response”. In data set [4], the “apoptosis as evaluated by PARP cleavage” value is “induced apoptosis”.
Turning to `Cc1nnc(-c2ccc(N3CCC(Oc4ccccc4C(F)(F)F)CC3)nn2)s1` [MF-438, 2-methyl-5-(6-(4-(2-(trifluoromethyl)phenoxy)piperidin-1-yl)pyridazin-3-yl)-1,3,4-thiadiazole], the “tumor response / mean tumor volume course” value in data set [5] (THJ16T xenograft) is “no tumor response”. Besides, the adverse events result in data set [5] (mice bearing THJ16T xenograft) is “Discharge from the eye and squinting”. The “survivin expression (IHC)” value in data set [5] (mouse, in vivo) is recorded as “induced survivin expression”. The “CD31 (IHC), tumor vascularization” value in data set [5] (versus placebo control) was “trend toward decreased CD31”. Further, the “cleaved caspase-3 (IHC)” value in data set [5] (versus placebo control, only the combination group achieved statistical significance) is given as “increased cleaved caspase-3”. Also, the “HERPUD1 (IHC), marker for ER stress” value in data set [5] (versus placebo control, statistically significant combinatorial values) is “Increased HERPUD1”.
